Tests used:
[1] = biological target: T1, CH1 domain of p300 and the C-TAD domain of HIF-1α (Homo sapiens, UniProt Q09472); assay: HIF-1α/p300 assay, dose–response version of the screening assay; assay type: binding; conditions: for inhibition of the protein–protein interaction: at 500 μM (high test concentration)
[2] = test system: chloroquine-sensitive (D6) strain of Plasmodium falciparum; assay: Antimalarial inhibitory activity, chloroquine-sensitive; assay type: cell-based; conditions: P. falciparum D6 strain
[3] = test system: chloroquine-resistant (W2) strain of Plasmodium falciparum; assay: Antimalarial inhibitory activity, chloroquine-resistant; assay type: cell-based; conditions: P. falciparum W2 strain
[4] = biological target: T1, CH1 domain of p300 and the C-TAD domain of HIF-1α; conditions: earlier report; cited from earlier work

T1 sequence (Q09472 331-417 limits assumed): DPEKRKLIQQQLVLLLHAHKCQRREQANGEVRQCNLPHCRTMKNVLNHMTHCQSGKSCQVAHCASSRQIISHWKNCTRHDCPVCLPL

Molecule | inhibition of the protein–protein interaction [1] | IC50 [2] [µM] | antimalarial effect (in words) [2] | IC50 [3] [µM] | antimalarial effect (in words) [3] | inhibition of the protein–protein interaction between p300 and HIF-1α (in words) [4] | IC50 ([1]; HIF-1α/p300 assay) [µM]
COc1ccc(C2(c3[nH]c(N)nc3-c3ccc(O)cc3)N=C3N=CC=C4c5ccccc5N=C2N43)cc1 (stereo not drawn) [compound 1, eudistidine C] | approximately 48% | – | – | – | – | – | –
COc1ccc(C2(O)N=C3N=CC=C4c5ccccc5N=C2N43)cc1 (stereo not drawn) [compound 2, eudistidine A] | – | 1.4 | significant antimalarial effects | 1.1 | significant antimalarial effects | inhibited | –
(+)-(R)-eudistidine C [1a] | 27% | – | significant antimalarial effects | – | significant antimalarial effects | – | –
(−)-(S)-eudistidine C [1b] | – | – | significant antimalarial effects | – | significant antimalarial effects | – | 276
